Columns and labels:
[1] = tested on: nicotine spasm and lethality; assay: Inhibition of nicotine spasm and lethality on mice (Stone); format: in vivo; settings: Table VIII; for ED50: Mus musculus, oral, 1 h before nicotine 1.4 mg/kg i.v.; for Therapeutical index: nicotine spasm and lethality, LD50/ED50
Source text: [Stone, C. C., Mecklenburg, K. L., Torchiana, M. L.: Arch. Int.

in vivo = settings: mouse, in vivo, po
Experimental: Male and female white mice (CFLP strain, 18-22 g) are used, 10 animals per dose. The test compounds are administered orally in a volume of 20 ml/kg. After administration the mice are observed for a period of 7 days. The animals are kept in plastic boxes, on wood litter, at room temperature. The animals receive standard mouse fodder and tap water ad libitum.

pentetrazole spasm = assay: Inhibition of pentetrazol spasm on mice; settings: for ED50: Mus musculus, po; for Therapeutical index: Table V, pentetrazole spasm, LD50/ED50
Experimental: The modified method of Benziger and Hane is used on white mice. Groups consisting of 6 animals are used for each dose. […] The test compounds are administered orally one hour before the treatment with pentetrazole; in the control group the animals obtain the carrier orally at the same points of time.
The therapeutical index data disclosed in the above Tables are calculated by means of the following equation: [formula]

hexobarbital narcosis = assay: Hexobarbital narcosis potentiating effect; settings: for ED50: Mus musculus, po; for Therapeutical index LD50 /ED50: Table I, hexobarbital narcosis
Experimental: The test is carried out on white mice. Groups consisting of six mice are used for each dose and test compound. The test compound is administered orally and an hour after this treatment narcosis is induced by means of a 40 mg/kg i.v. dose of hexobarbital. The control group receives carrier instead of the test compound.
Those mice are considered to be having a positive reaction which show a narcosis time at least 2.5 times longer than that of the control group. The ED50 values thus transformed are calculated.

yohimbin toxicity = assay: animal or person; settings: for ED50: Mus musculus; for Therapeutical index: Table IV, yohimbin toxicity, LD50/ED50
Experimental: The test is carried out according to the method of Quinton. Groups consisting of 10 mice are used for each dose. The animal groups are treated with the suitable doses of the test compounds while the control group is treated with a carrier. An hour after the treatment a sublethal dose of yohimbin is administered intraperitoneally in a volume of 20 ml/kg. The perished animals are counted after 1 and 24 hours.

acetic acid writhing = assay: Acetic acid "writhing test" on mice (Newbould); format: in vivo, white mice; settings: Table VII; for ED50: Mus musculus, oral, 1 h before acetic acid i.p., read-out: ED50
Experimental: In the period between the 5th and 10th minutes following the administration of acetic acid the number of the characteristic "writhing" responses is counted for each animal and the "total writhing number" (within 5 minutes) is expressed as the percentage of the value obtained for the control animals. The mice are treated with the test compound and the carrier, respectively, orally 1 hour before the administration of acetic acid. 12 animals are used per dose.
[Newbould, B. D.: Brit.

motility = assay: animal or person; format: in vivo; settings: for ED50: Mus musculus, po
Experimental: The test is accomplished according to the method of Borsy et al. in a 10-channel Dews system equipment, whereby 3 mice are used per channel. The test compound or the carrier, respectively, is administered orally, and one hour after the said treatment the animals are placed into the apparatus and the number of the interruptions of infrared radiation is registered for 30 minutes.
The results are summarized in Table II and documented by means of suitable statistics for each experiment.
[J. Borsy, E. Csanyi, I. Lazar: Arch. Int. Pharmacodyn. 124, 1 (1960)].

maximal electroshock = assay: Inhibition of maximal electroshock on mice
Experimental: The test is carried out on white mice weighing 20-25 g. The animals receive an electric shock through corneal electrodes (50 Hz; 45 mA, 0.4 sec.). A total inhibition of the tonus extensor spasms of the posterior extremities is regarded as the criterium of anticonvulsive effect. The test compound and the carrier, respectively, are administered orally an hour before the electric shock.

| SMILES | ED50 [1] [mg/kg] | LD50 at 168 h (in vivo) [mg/kg] | ED50 (pentetrazole spasm) [mg/kg] | Therapeutical index (pentetrazole spasm) | ED50 (hexobarbital narcosis) [mg/kg] | Therapeutical index LD50 /ED50 (hexobarbital narcosis) | ED50 (yohimbin toxicity) [mg/kg] | other results |
| --- | --- | --- | --- | --- | --- | --- | --- | --- |
| CC1(C)CC(/C=C/c2ccccc2)=CC(=N/OCCN2CCOCC2)/C1 [Example 17, 5,5-Dimethyl-3-(E)-phenyl-vinyl-1-(E)-(N-morpholino-ethoxyimino)-2-cyclohexene] | 40 | 1600 | 148 | 10.8 | 13 | 123.0 | – | Therapeutical index [1]: 40.0 |
| CN(C)CCCO/N=C1C=C(/C=C/c2cccc(Cl)c2)CC(C)(C)C/1 [Example 8, 5,5-Dimethyl-3-(E)-[(3'-chloro-phenyl)-vinyl]-1-(E)-(3"-dimethylamino-propoxyimino)-2-cyclohexene] | 35 | 2000 | 58 | 34.5 | 180 | 11.1 | 35 | Therapeutical index (yohimbin toxicity): 57.1; ED50 (acetic acid writhing): 178 mg/kg; Therapeutical index (acetic acid writhing; acetic acid writhing, LD50/ED50): 11.2; ED50 (motility): 170 mg/kg; Therapeutical index (motility; Table II, motility inhibition, LD50/ED50): 11.8 |
| CN(C)CCCN1c2ccccc2CCc2ccccc21 [Imipramin, reference compound] | – | – | – | – | – | – | 21 | – |
| CN(C)CCCO/N=C1C=C(/C=C/c2ccccc2Cl)CC(C)(C)C/1 [Example 9, 5,5-Dimethyl-3-(E)-[(2'-chloro-phenyl)-vinyl]-1-(E)-(3"-dimethylamino-propoxyimino)-2-cyclohexene] | – | 2000 | 160 | 12.5 | – | – | 50 | Therapeutical index (yohimbin toxicity): 40 |
| CN1C(=O)OC(C)(C)C1=O [Trimethadion, reference compound] | – | – | 490 | – | – | – | – | ED50 (maximal electroshock; Mus musculus, po): 400 mg/kg; Therapeutical index (maximal electroshock; Table VI, maximal electroshock, LD50/ED50): 5.1 |
| CCCC(C)(COC(N)=O)COC(N)=O [Meprobamate, reference compound] | – | – | – | – | 260 | 4.2 | – | ED50 (motility): 270 mg/kg |
| CN(C)CCO/N=C1C=C(/C=C/c2ccc(Cl)cc2)CC(C)(C)C/1 [Example 15, 5,5-Dimethyl-3-(E)-[(4'-chloro-phenyl)-vinyl]-1-(E)-(2"-dimethylamino-ethoxyimino)-cyclohexene] | 70 | 2000 | 120 | 16.6 | 25 | 80.0 | – | Therapeutical index [1]: 28.6 |
| CN1CCN(CCCO/N=C2C=C(/C=C/c3ccc(Cl)cc3)CC(C)(C)C/2)CC1 [Example 4, 5,5-Dimethyl-3-(E)-[(4'-chloro-phenyl)-vinyl]-1-(E)-(4"-methyl-1"-piperazinyl-propoxyimino)-2-cyclohexene] | – | 2000 | 180 | 11.1 | – | – | – | – |
| OC(CCN1CCCCC1)(c1ccccc1)C1CCCCC1 (stereo not drawn) [Trihexyphenidyl, reference compound] | 20 | – | – | – | – | – | – | – |
| COc1ccc(/C=C/C2=CC(=N/OCCCN(C)C)/CC(C)(C)C2)cc1 [Example 11, 5,5-Dimethyl-3-(E)-[(4'-methoxy-phenyl)-vinyl]-1-(E)-(3"-dimethylamino-propoxyimino)-2-cyclohexene] | – | 2000 | 78 | 25.6 | 140 | 14.3 | 40 | Therapeutical index (yohimbin toxicity): 50 |
| CCOc1ccccc1OCC1CNCCO1 (stereo not drawn) [Viloxazin, reference compound] | – | – | – | – | – | – | 20 | – |
| CC(=O)Nc1ccc(O)cc1 [Paracetamol, reference compound] | – | – | – | – | – | – | – | ED50 (acetic acid writhing): 180 mg/kg |

Reference: US4939142A, “Substituted styrene derivatives” (priority 1989, dated 1990)
